# Results as given in ChEMBL document CHEMBL5137077, “Peptide-to-Small Molecule: A Pharmacophore-Guided Small Molecule Lead Generation Strategy from High-Affinity Macrocyclic Peptides” (J Med Chem, 2022).
# Positions of bridges follow the written chain, without caps; N, C: chain ends. Non-standard residues stand in square brackets, D forms with d. Residues, ends and D or L forms follow the SMILES beside them. Phe(4-CONH2) = NC(=O)c1ccc(C[C@H](N)C(=O)O)cc1; NHexGly = CCCCCCNCC(=O)O; Sar = CNCC(=O)O
# Legend:
# [1] = target: Indolethylamine N-methyltransferase (Homo sapiens, UniProt O95050); assay: Inhibition of N-terminal 6His-tagged full length human recombinant INMT (1 to 263 residues) expressed in Escherichia coli BL21 (DE3) cells using S-(5'-Adenosyl)-L-methionine chloride dihydrochloride and 9H-pyrido[3,4-b]indole as substrate incubated for 2.5 hrs by MTase-Glo assay
# [2] = system: HEK293; assay: Cytotoxicity against HEK293 cells assessed as reduction in ATP incubated for 10 mins by CellTiter-Glo luminescence assay; format: toxicity, cell-based; conditions: human, hek293, 10 min
# [3] = target: T1, Nicotinamide N-methyltransferase (Homo sapiens, UniProt P40261); assay: Inhibition of N-terminal 6His-tagged full length human recombinant NNMT (1 to 264 residues) expressed in Escherichia coli BL21 (DE3) cells using S-adenosyl-L-methionine and NAM as substrate incubated for 2 hrs by RapidFire Mass Spectrometry
# T1 sequence (P40261 whole entry): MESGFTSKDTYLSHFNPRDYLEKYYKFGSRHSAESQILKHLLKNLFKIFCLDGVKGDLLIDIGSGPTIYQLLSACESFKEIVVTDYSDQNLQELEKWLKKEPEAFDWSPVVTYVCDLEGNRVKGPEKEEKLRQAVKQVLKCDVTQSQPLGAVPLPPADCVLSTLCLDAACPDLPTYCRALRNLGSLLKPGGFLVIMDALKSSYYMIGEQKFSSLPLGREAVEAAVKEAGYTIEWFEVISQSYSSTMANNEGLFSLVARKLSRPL
# [4] = target: T1, Nicotinamide N-methyltransferase; assay: Inhibition of N-terminal 6His-tagged full length human recombinant NNMT (1 to 264 residues) expressed in Escherichia coli BL21 (DE3) cells using S-adenosyl-L-methionine and NAM as substrate incubated for 22 to 24 hrs by RapidFire Mass Spectrometry
# [5] = target: T1, Nicotinamide N-methyltransferase; assay: Inhibition of NNMT in HEK293 cells measured after 20 to 24 hrs by RapidFire Mass Spectrometry; format: cell-based
# Chain of Indolethylamine N-methyltransferase (O95050 whole entry, the tested form may be a part): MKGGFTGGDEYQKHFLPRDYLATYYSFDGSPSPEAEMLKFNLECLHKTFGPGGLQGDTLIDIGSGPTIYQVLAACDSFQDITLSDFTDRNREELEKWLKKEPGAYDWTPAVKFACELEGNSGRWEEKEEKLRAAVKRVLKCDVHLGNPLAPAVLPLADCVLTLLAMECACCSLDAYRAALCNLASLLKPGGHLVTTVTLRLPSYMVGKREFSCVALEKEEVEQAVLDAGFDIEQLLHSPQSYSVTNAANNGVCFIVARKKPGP
IC50 [1],IC50 [4],SMILES,further results
> 100 µM,–,Cc1ccc2c(c1)cc([C@H]1C[C@H](n3ccnc3CN)CN1C(=O)c1cnc3[nH]ccc3c1)n2Cc1ccc(Cl)cc1,–
> 100 µM,–,NCc1nccn1[C@H]1C[C@H](c2nc3ccccc3n2Cc2ccccc2)N(C(=O)c2cnc3[nH]ccc3c2)C1,–
> 100 µM,–,Cc1ccc2c(c1)cc([C@H]1C[C@H](n3nc(C)cc3CN)CN1C(=O)c1cnc3[nH]c(C)cc3c1)n2Cc1ccc(Cl)cc1,CC20 [2]: > 10 µM
–,–,CCCCCCN(CC(=O)N[C@@H](Cc1c[nH]c2ccccc12)C(N)=O)C(=O)CNC(=O)[C@H](CCCNC(=N)N)NC(C)=O (Ac-RG[NHexGly]W-NH2),IC50 [3]: > 30 µM
–,> 100 µM,CCCCCCN1CC(=O)N[C@@H](Cc2c[nH]c3ccccc23)C(=O)N2CCC[C@H]2C(=O)N[C@H](C(N)=O)CSCC(=O)N[C@@H](Cc2ccccc2)C(=O)N[C@@H](Cc2ccc(C(N)=O)cc2)C(=O)N[C@@H](C)C(=O)NCC1=O ({CH2CO}-F[Phe(4-CONH2)]AG[NHexGly]WPC-NH2; thioether N-8),–
–,> 100 µM,C[C@@H]1NC(=O)CNC(=O)[C@H](CCCNC(=N)N)NC(=O)[C@H](Cc2ccc(C(N)=O)cc2)NC(=O)[C@H](Cc2ccccc2)NC(=O)CSC[C@@H](C(N)=O)NC(=O)[C@@H]2CCCN2C(=O)[C@H](Cc2c[nH]c3ccccc23)NC1=O ({CH2CO}-F[Phe(4-CONH2)]RGAWPC-NH2; thioether N-8),–
–,> 100 µM,CCCCCCN1CC(=O)N[C@@H](C)C(=O)N2CCC[C@H]2C(=O)N[C@H](C(N)=O)CSCC(=O)N[C@@H](Cc2ccccc2)C(=O)N[C@@H](Cc2ccc(C(N)=O)cc2)C(=O)N[C@@H](CCCNC(=N)N)C(=O)NCC1=O ({CH2CO}-F[Phe(4-CONH2)]RG[NHexGly]APC-NH2; thioether N-8),–
> 100 µM,–,CCCCCCN1CC(=O)N[C@@H](Cc2c[nH]c3ccccc23)C(=O)N2CCC[C@H]2C(=O)N[C@H](C(=O)NCC(N)=O)CSCC(=O)N[C@@H](Cc2ccccc2)C(=O)N[C@@H](Cc2ccc(C(N)=O)cc2)C(=O)N[C@@H](CCCNC(=N)N)C(=O)NCC1=O ({CH2CO}-F[Phe(4-CONH2)]RG[NHexGly]WPCG-NH2; thioether N-8),–
–,> 30 µM,CN1CC(=O)N[C@@H](Cc2c[nH]c3ccccc23)C(=O)N2CCC[C@H]2C(=O)N[C@H](C(N)=O)CSCC(=O)N[C@@H](Cc2ccccc2)C(=O)N[C@@H](Cc2ccc(C(N)=O)cc2)C(=O)N[C@@H](CCCNC(=N)N)C(=O)NCC1=O ({CH2CO}-F[Phe(4-CONH2)]RG[Sar]WPC-NH2; thioether N-8),–
4 µM,–,Nc1ncnc2c1ncn2[C@@H]1O[C@H](C[C@@H](N)CC[C@H](N)C(=O)O)[C@@H](O)[C@H]1O [SINEFUNGIN],IC50 [5]: > 100 µM; IC50 [3]: 5.2 µM
